According to patent US11673891B2, “Imidazopyrimidine compounds and uses thereof” (Dana-Farber Cancer Institute, Inc., priority 2017, dated 2023):

Tests used:
[1] = test system: human adult PBMCs; experiment: TNF production by ELISA after stimulation of human adult PBMCs; format: cell-based; details: 33 μM, 18 hours
Experimental: Table 1. Activity of Exemplary Imidazopyrimidine Compounds on Stimulating TNF Production in PBMCs as Compared to Compound R848 Table 1 provides the activity of exemplary compounds on stimulating TNF production in PBMCs as compared to the benchmark compound R848. Specifically, TNF production was measured by ELISA after stimulation of adult PBMCs with compound 037 analog family or the compound R848 at 33 μM for 18 hours. Analogs are ranked top to bottom by median percentage TNF production (TNF %) as compared to R848 (N=3-5). The compounds have been classified in the following categories according to TNF %: high activity—class A: TNF %>15%; medium activity—class B: 1%<TNF %≤15%; low activity—class C: TNF %≤1%.
(§1) ELISAs and Multiplex-Analyte Assays. Supernatants derived from human PBMCs and DC stimulations were assayed by ELISA for TNF (ThermoFisher Scientific; Waltham, Mass., USA). Cytokine and chemokine expression profiles (e.g., IFNγ, IL-9, IL-10, IL-12 (p70), IL-13, IL-1β, IL-23, IL-27, IL-28A, IL-33, IL-6, MIP-3α/CCL20, and TNF) in cell culture supernatants were measured using a customized Milliplex® Human Th17 Magnetic Bead Panel according to the manufacturer's instructions (Millipore, Chicago, Ill., USA). Assays were read and analyzed on the Luminex® 100/200™ System and xPOTENT® software (Luminex, Austin, Tex.). A minimum threshold was set at the minimum detectable concentration for each individual assay, defined as three standard deviations above the mean background.
PBMCs were isolated from blood using a Ficoll density gradient. PBMCs either used fresh or were stored at 5×10^7 cells per vial in 1 mL RPMI containing 20% autologous plasma and 10% DMSO at −80° C. until use. Stimulation plates were prepared by transferring 0.66 μl of DMSO-dissolved compounds (10 mM) to each well of a round bottom 96-well plate. PBMCs isolated from human adult donors were resuspended at a concentration of 10^5 cells/200 μl of RPMI supplemented with 10% of platelet-poor plasma. 200 μl of the cell suspension were transferred to each well resulting in a final compound concentration of […]. After about 18 hours of incubation (37° C., 5% CO2), plates were spun down (500×g, room temperature, 5 minutes) and supernatants were harvested for further analysis.

[2] = test system: human adult PBMCs; experiment: 9-plex multiplex cytokine assay after stimulation of adult PBMCs; format: cell-based; details: 0.1 μM-33 μM, 18 hours, 10% autologous plasma, fold-change over unstimulated control, N=4
Experimental: Shown is a 9-plex multiplex cytokine assay after stimulation of adult peripheral blood mononuclear cells (PBMCs) with compound 037 or R848 at four different concentrations (0.1 μM-33 μM). Radar plots of immune polarizing cytokine production from human adult PBMCs stimulated for 18 hours in 10% autologous plasma, represented as fold-change over RPMI unstimulated control (N=4).
as §1

## CCC(C(=O)Nc1cc(-c2cn3cccnc3n2)ccc1C)c1ccccc1 (centres unmarked) [Compound 37]
[1]; adult PBMCs, ELISA, median, N=3-5, unit not given (FIG. 6B/7B legends: TNF concentration in ng/ml)
  TNF (Median): 2.403
[1]; class according to TNF % as compared to R848, adult PBMCs
  Activity class: A (high activity—class A: TNF %>15%)
[1]; human adult PBMCs, ELISA
  Production of human TNF by PBMCs (in words): induces robust production of TNF-α
[1]; median percentage TNF production as compared to R848, adult PBMCs, N=3-5
  TNF % (Median): 69.79%
[2]
  Cytokine response, 9-plex multiplex (in words): induced a broad concentration-dependent cytokine response
